Laboratory results: PubChem BioAssay AID1208 (EPA DSSTox, 2008)
Calls of active or inactive are those of the source.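 The calls were made as follows: active = at least one rat sex group has a carcinogenic potency value and tumor site recorded; inconclusive = only rat studies were judged inadequate by the national testing program; inactive = no potency or tumor site, with negative rat experiments.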

Tested on: rat chronic carcinogenicity bioassay, TD50
Assay: DSSTox (CPDBAS) Carcinogenic Potency Database Summary Rat Bioassay Results
Conditions: for Potency: hits give low values; for outcome: TD50_Rat_Note: no positive results
How it was run: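 The activity score maps log10(1/TD50_Rat_mmol) linearly onto 1–100; actives without a computed TD50, such as mixtures, receive 50. Source data are chronic rat carcinogenicity tests, using the most positive experiment for each sex.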

[1] = TargetSites_Rat_Female: no positive results
[2] = TD50_Rat_Note: TD50 is harmonic mean of more than one positive test
[3] = TD50_Rat_Note: TD50 is harmonic mean of more than one positive test, TargetSites_Rat_Female: liver

In the case of `CN(C)NC(=O)CCC(=O)O`, the Potency (TD50_Rat_Note: no positive results are statistically significant, TargetSites_Rat_Female: uterus) is reported as 2500 mg/kg/day.
`[Cl-].[Cl-].[Hg+2]` showed a Potency [1] of 3.12 mg/kg/day.
In the case of `CNC(=O)O/N=C(\SC)C(=O)N(C)C`, the outcome [1] is reported as “inactive; no positive results”.
Work on `O=S(=O)(O)c1ccc2c(N=Nc3ccc(S(=O)(=O)O)c4ccccc34)c(O)c(S(=O)(=O)O)cc2c1` yielded a Potency (TD50_Rat_Note: TD50 is harmonic mean of more than one positive test, TargetSites_Rat_BothSexes: hematopoietic system) of 1470 mg/kg/day.
In the case of `S=c1[nH]c2ccccc2s1`, the Potency (TD50_Rat_Note: TD50 is harmonic mean of more than one positive test, TargetSites_Rat_Female: adrenal gland, pituitary gland) is reported as 344 mg/kg/day.
With `CCn1cc(C(=O)O)c(=O)c2ccc(C)nc21` the Potency (TD50_Rat_Note: TD50 is harmonic mean of more than one positive test, TargetSites_Rat_Female: clitoral gland) was 201 mg/kg/day.
Work on `O=NN1CCOC1=O` yielded a Potency (TD50_Rat_Note: TD50 is harmonic mean of more than one positive test, harmonic mean of TD50 includes a value for upper 99% confidence li) of 0.385 mg/kg/day.
In the case of `N#Cc1c(Cl)c(Cl)c(Cl)c(C#N)c1Cl`, the Potency (TD50_Rat_Note: TD50 is harmonic mean of more than one positive test, TargetSites_Rat_Female: kidney) is reported as 2270 mg/kg/day.
With `CC(O)CO` (stereo not given) the outcome [1] was “inactive; no positive results”.
With `NC(=O)c1ccccc1C(N)=O` the outcome [1] was “inactive; no positive results”.
`CN(C)[C@@H]1C(=O)C(C(N)=O)=C(O)[C@@]2(O)C(=O)C3=C(O)c4c(O)cccc4[C@@](C)(O)[C@H]3C[C@@H]12` was tested, and the outcome [1] was “inactive; no positive results”.
`CCOC(=O)C(C)(C)Oc1ccc(Cl)cc1` gave a Potency of 169 mg/kg/day.
`Cc1ccc(C)c(C)c1` was tested, and the Potency [1] was 4350 mg/kg/day.
`CC(COc1ccccc1)N(CCCl)Cc1ccccc1` (stereo not given) showed a Potency (TD50_Rat_Note: positive test results only by intraperitoneal or intravenous injection, TD50 is harmonic mean of more than one positive, TargetSites_Rat_Female: peritoneal cavity) of 1.09 mg/kg/day.
In the case of `C[C@]12C=CC(=O)C=C1CC[C@@H]1[C@@H]2[C@@H](O)C[C@@]2(C)[C@H]1CC[C@]2(O)C(=O)COC(=O)CCCc1ccc(N(CCCl)CCCl)cc1`, the Potency (TargetSites_Rat_Female: ear Zymbals gland) is reported as 19.2 mg/kg/day.
`OCCOCCO` gave a Potency [1] of 1660 mg/kg/day.
In the case of `COc1cc(/C=C/C(=O)O[C@H]2CC[C@]34C[C@]35CC[C@]3(C)[C@@H]([C@H](C)CCC=C(C)C)CC[C@@]3(C)[C@@H]5CC[C@H]4C2(C)C)ccc1O`, the outcome [1] is reported as “inactive; no positive results”.
With `CS(=O)(=O)OCCCCOS(C)(=O)=O` the outcome was “inactive; no positive results”.
Compound `CC(O)CN(C)N=O` (stereo not given) has a Potency (TD50_Rat_Note: TD50 is harmonic mean of more than one positive test, TargetSites_Rat_Female: esophagus, nasal cavity) of 0.0463 mg/kg/day.
`CCc1nc(N)nc(N)c1-c1ccc(Cl)cc1` was tested, and the outcome [1] was “inactive; no positive results”.
Compound `C=CC(OC(C)=O)c1ccc2c(c1)OCO2` (stereo not given) has a Potency [2] of 25 mg/kg/day.
`CC1CN1P(=O)(N1CC1C)N1CC1C` (stereo not given) was tested, and the Potency was 4.46 mg/kg/day.
In the case of `CC(CCl)OC(C)CCl` (stereo not given), the outcome [1] is reported as “inactive; no positive results”.
For `CCCCCCOc1cc(C)c(O)c(C)c1C`, the outcome [1] was “inactive”.
With `CC(Cl)(Cl)Cl` the outcome [1] was “inactive; no positive results”.
With `C[C@@H]1CCCCN1N=O` the Potency (TargetSites_Rat_BothSexes: nervous system) was 20.4 mg/kg/day.
`CN(N=O)c1ccncc1` was tested, and the outcome [1] was “inactive”.
For `Clc1ccc2c(c1)Oc1ccc(Cl)cc1O2`, the outcome [1] was “inactive; no positive results”.
In the case of `Brc1cc(Br)c(-c2cc(Br)c(Br)cc2Br)cc1Br`, the Potency [3] is reported as 0.322 mg/kg/day.
`O=NN(c1ccccc1)c1ccccc1` gave a Potency (TD50_Rat_Note: TD50 is harmonic mean of more than one positive test, TargetSites_Rat_Female: urinary bladder) of 167 mg/kg/day.
With `Nc1ccc(Nc2ccccc2)cc1` the outcome [1] was “inactive; no positive results”.
Compound `CCN(N=O)C(N)=O` has a Potency (TD50_Rat_Note: TD50 is harmonic mean of more than one positive test, TargetSites_Rat_Female: nervous system, small intestine) of 0.948 mg/kg/day.
With `O=C1CCCCC1` the outcome [1] was “inactive; no positive results”.
With `O=[N+]([O-])/C=C/c1ccccc1` the outcome [1] was “inactive; no positive results”.
`CC(C)=NNc1ncc(-c2ccc([N+](=O)[O-])o2)s1` was tested, and the Potency (TargetSites_Rat_Female: stomach) was 6.05 mg/kg/day.
For `CC(C)CCC[C@@H](C)[C@H]1CC[C@H]2[C@@H]3CC=C4C[C@@H](OC(=O)Cc5ccc(N(CCCl)CCCl)cc5)CC[C@]4(C)[C@H]3CC[C@]12C`, the Potency (TargetSites_Rat_Female: mammary gland) was 0.523 mg/kg/day.
With `CCN=c1cc2oc3cc(NCC)c(C)cc3c(-c3ccccc3C(=O)OCC)c-2cc1C` the outcome [1] was “inactive; no positive results”.
With `Clc1cnc(Oc2ccc(Oc3ncc(Cl)cc3Cl)cc2)c(Cl)c1` the outcome was “inactive; no positive results”.
For `CC(C)C=O`, the outcome [1] was “inactive; no positive results”.
Work on `Cc1cccc(Nc2cc(Cl)nc(SCC(=O)NCCO)n2)c1C` yielded a Potency of 6.49 mg/kg/day.
`O=C1O[C@H]([C@H](O)CO)C(O)=C1O` was tested, and the outcome [1] was “inactive; no positive results”.
`O=C(O)c1cc(=O)[nH]c(=O)[nH]1` was tested, and the outcome was “inactive; no positive results”.
For `C/C=C(/C)C(=O)O[C@H]1CCN2CC=C(COC(=O)[C@](O)([C@H](C)OC)C(C)(C)O)[C@H]12`, the Potency (TD50_Rat_Note: TD50 is harmonic mean of more than one positive test, TargetSites_Rat_Female: hematopoietic system, liver, vascular system) was 0.389 mg/kg/day.
`S=C([S-])NCCNC(=S)[S-].[Mn+2]` was tested, and the Potency (TargetSites_Rat_BothSexes: all tumor bearing animals) was 157 mg/kg/day.
Work on `Nc1ccc(N=Nc2ccccc2)c(N)n1` yielded a Potency (TD50_Rat_Note: TD50 is harmonic mean of more than one positive test, TargetSites_Rat_Female: large intestine) of 303 mg/kg/day.
Compound `C=CCl` has a Potency (TD50_Rat_Note: TD50 is harmonic mean of more than one positive test, greater than ten-fold variation among TD50 values for positive res, TargetSites_Rat_Female: ear Zymbals gland, kidney, liver, mammary gland, nasal cavity, nervous system, vascular system) of 6.11 mg/kg/day.
Compound `CN(N=O)c1ccc(F)cc1` has a Potency of 0.255 mg/kg/day.
With `CCC[N+](=O)[O-]` the outcome [1] was “inactive; no positive results”.
For `C=C(C)[C@H]1Cc2c(ccc3c2O[C@@H]2COc4cc(OC)c(OC)cc4[C@@H]2C3=O)O1`, the outcome [1] was “inactive; no positive results”.
Work on `CC(F)(Cl)Cl` yielded a Potency [1] of 5260 mg/kg/day.
For `CNC(=O)CSP(=S)(OC)OC`, the outcome [1] was “inactive; no positive results”.
With `O=C(O)c1nn(Cc2ccc(Cl)cc2Cl)c2ccccc12` the outcome [1] was “inactive; no positive results”.
In the case of `CCCCCCCCCCCCN(C)N=O`, the Potency (TD50_Rat_Note: TD50 is harmonic mean of more than one positive test, harmonic mean of TD50 includes a value for upper 99% confidence li, TargetSites_Rat_Female: urinary bladder) is reported as 0.537 mg/kg/day.
For `CCCCNC(N)=O`, the outcome [1] was “inactive; no positive results”.
`S=c1nc[nH]c2nc[nH]c12` was tested, and the outcome [1] was “inactive; no positive results”.
With `Cn1cnc([N+](=O)[O-])c1Sc1ncnc2nc[nH]c12` the outcome [1] was “inactive”.
With `Brc1cc(Br)c2cccnc2c1` the outcome [1] was “inactive; no positive results”.
In the case of `O=C(Nc1cccc2c(=O)cc(-c3nn[nH]n3)oc12)c1ccc(OCCCCc2ccccc2)cc1`, the outcome [1] is reported as “inactive; no positive results”.
For `O=NN1CCCCCCCCCCCC1`, the Potency [3] was 10.9 mg/kg/day.
`O=[As]O` was tested, and the outcome (TargetSites_Rat_BothSexes: no positive results) was “inactive”.
In the case of `CCCC[N+](=O)[O-]`, the outcome is reported as “inactive; no positive results”.
`ClC(Cl)(Cl)C(Cl)(Cl)Cl` was tested, and the Potency [1] was 55.4 mg/kg/day.
In the case of `CC(=O)N[C@@H](CS)C(=O)O`, the outcome is reported as “inactive; no positive results”.
`ClC1C2(Cl)C3C4C5OC5C5C4C1(Cl)C(Cl)(C53)C2(Cl)Cl` (stereo not given) was tested, and the outcome [1] was “inactive; no positive results”.
For `CO[C@H]1/C=C/O[C@@]2(C)Oc3c(C)c(O)c4c(O)c(c(/C=N/N5CCN(C)CC5)c(O)c4c3C2=O)NC(=O)/C(C)=C\C=C\[C@H](C)[C@H](O)[C@@H](C)[C@@H](O)[C@@H](C)[C@H](OC(C)=O)[C@@H]1C`, the outcome [1] was “inactive; no positive results”.
For `Cc1cc(Cl)ccc1OCC(=O)O`, the outcome [1] was “inactive; no positive results”.
`C=C(Cl)CSC(=S)N(CC)CC` gave a Potency (TD50_Rat_Note: TD50 is harmonic mean of more than one positive test, TargetSites_Rat_Female: mammary gland) of 26.1 mg/kg/day.
`C=CC(O)c1ccc2c(c1)OCO2` (stereo not given) gave a Potency [2] of 18.4 mg/kg/day.
For `COc1cc(-c2ccc(N)c(OC)c2)ccc1N`, the Potency (TD50_Rat_Note: TD50 is harmonic mean of more than one positive test, TargetSites_Rat_Female: clitoral gland, ear Zymbals gland, large intestine, liver, mammary gland, oral cavity, skin, uterus) was 1.04 mg/kg/day.
`CCN(CC)C(=O)Nc1ccc(OCC(O)CNC(C)(C)C)c(C(C)=O)c1` (stereo not given) was tested, and the outcome [1] was “inactive; no positive results”.
For `NC(=O)c1cnccn1`, the outcome [1] was “inactive; no positive results”.
With `CCCCCCCCCC[N+](C)(C)[O-]` the outcome [1] was “inactive; no positive results”.
`CCNc1nc(Cl)nc(NC(C)C)n1` was tested, and the Potency (TD50_Rat_Note: TD50 is harmonic mean of more than one positive test, TargetSites_Rat_Female: hematopoietic system, mammary gland, uterus) was 36.6 mg/kg/day.
In the case of `Oc1ccc2c(c1)OCO2`, the Potency (TD50_Rat_Note: TD50 is harmonic mean of more than one positive test, TargetSites_Rat_Female: stomach) is reported as 1350 mg/kg/day.
For `COc1cc(OC)c2c3c(c(=O)oc2c1)C(=O)CC3`, the outcome was “inactive; no positive results”.
In the case of `O=C1O[C@H]([C@@H](O)CO)C(O)=C1O`, the outcome [1] is reported as “inactive; no positive results”.
For `CC(C)CON=O`, the Potency (TD50_Rat_Note: TD50 is harmonic mean of more than one positive test, TargetSites_Rat_Female: lung) was 54.1 mg/kg/day.
Compound `COc1ccc(OC)c(/C=C/c2ccc(N)cc2)c1` has a Potency of 0.721 mg/kg/day.
For `Cc1ccc(S(=O)(=O)Oc2ccc(N=Nc3ccc(-c4ccc(N=Nc5c(O)ccc6cc(S(=O)(=O)O)cc(S(=O)(=O)O)c56)c(C)c4)cc3C)cc2)cc1`, the Potency (TD50_Rat_Note: TD50 is harmonic mean of more than one positive test, TargetSites_Rat_Female: clitoral gland, ear Zymbals gland, large intestine, liver, lung, oral cavity, skin, small intestine) was 3.89 mg/kg/day.
For `O=C1OC(O)C(C(Cl)Cl)=C1Cl` (stereo not given), the Potency (TD50_Rat_Note: TD50 is harmonic mean of more than one positive test, TargetSites_Rat_Female: adrenal gland, hematopoietic system, liver, mammary gland, thyroid gland) was 0.583 mg/kg/day.
Work on `Cc1ccc2c(c1[N+](=O)[O-])C(=O)c1ccccc1C2=O` yielded a Potency [3] of 84.8 mg/kg/day.
With `CCOP(=S)(OCC)Oc1ccc([N+](=O)[O-])cc1` the outcome [1] was “inactive; no positive results”.
In the case of `C[C@H](CCC(=O)O)[C@H]1CC[C@H]2[C@@H]3CC[C@@H]4C[C@H](O)CC[C@]4(C)[C@H]3CC[C@]12C`, the outcome [1] is reported as “inactive; no positive results”.
`O=S(=O)(O)CCS` was tested, and the outcome was “inactive; no positive results”.
In the case of `O=NN(CCO)C(=O)NCCCl`, the Potency (TD50_Rat_Note: TD50 is harmonic mean of more than one positive test, TargetSites_Rat_Female: kidney, liver) is reported as 0.356 mg/kg/day.
